The record followed here is PubChem BioAssay (NCI).

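Assay format: 96-well plates, 48-hour exposure. At the TGI there is no net growth.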 Bounds are passed on as bounds.

Experiment in all cases: growth of human tumour cells (NCI), 48 h
Assay [1] deals with OVCAR-4 ovarian.
For assay [2], the system named is PC-3 prostate.
In assay [3] the test system is HOP-62 NSCLC.
Assay [4] deals with UO-31 renal.
The test system of assay [5] is M14 melanoma.
Assay [6] has as its system NCI-H522 lung.
Assay [7] has as its system SR leukemia.
Assay [8] concerns SK-MEL-5 melanoma.
Assay [9] deals with A498 renal.
The test system of assay [10] is DU-145 prostate.

For `O=C1O[C@H](c2ccc3c(c2)OCO3)[C@H]2CO[C@@H](c3ccc4c(c3)OCO4)[C@@H]12`, the TGI in assay [1], in [2], in assay [3], in assay [4], in assay [5] and in assay [6] was more than 100 µM throughout. The TGI in assay [7] and in [8] was more than 100 µM each time.

For `O=C1NC2OC(C(O)CO)C(O)C2O1` (configuration not stated), the TGI in assay [1], in [9], in assay [4], in assay [5], in assay [6] and in assay [7] was more than 100 µM in each case. Also, the TGI in assay [8] was more than 100 µM.

With `O=C1CSC(/C(=N/Nc2ccccc2)c2nc3ccccc3[nH]2)=N1`, the TGI in [1] is more than 100 µM; in assay [9] it was more than 100 µM; in [3], 67.3 µM; in assay [4] it was more than 100 µM; in assay [5] it was more than 100 µM; in [6], more than 100 µM. For the same compound, the TGI in assay [7] is 31.1 µM; in assay [8], more than 100 µM.

With `COc1cccc(/C=N/n2c(C)n[nH]c2=O)c1`, the TGI in [1], in [2], in assay [9], in [3], in [4] and in [5] was more than 100 µM each time.

Turning to `CC(C)CC(O)P(=O)(O)O` (configuration not stated), the TGI in assay [1], in assay [2], in [9], in assay [3], in [4] and in [10] was more than 100 µM throughout. Moreover, the TGI in [5] and in [8] was more than 100 µM each time.

Turning to `Cn1c(COC(=O)Nc2ccccc2)c(COC(=O)Nc2ccccc2)c2ccc3cc(Cl)c(Cl)cc3c21`, the TGI was found to be 20.4 µM in [2]; 4.25 µM in assay [9]; 26.5 µM in assay [4]; 31 µM in assay [10]; 19.6 µM in assay [5]; 16.1 µM in assay [8].

Regarding `CC1=NNC(=O)C1C(CC(=O)c1c[nH]c2ccccc12)C(=O)O` (configuration not stated), the TGI in assay [2], in assay [9], in [3], in [4], in assay [10] and in [5] was more than 100 µM each time. The TGI in assay [6] and in [8] was more than 100 µM in each case.

In the case of `Cc1ccc(O)c(-c2cscn2)c1`, the TGI is more than 100 µM in [1]; more than 100 µM in assay [2]; 70 µM in [9]; more than 100 µM in assay [3]; more than 100 µM in assay [4]; more than 100 µM in assay [5]. The TGI in [7] and in assay [8] was more than 100 µM throughout.

For the compound `CSc1sc2ccccc2[s+]1`, the TGI in assay [1], in assay [9], in assay [3], in assay [4], in [5] and in [6] was more than 100 µM in each case. Also, the TGI in assay [7] and in assay [8] was more than 100 µM throughout.

On to `Nc1ccn(C2OC(CO)C(O)C2O)c(=O)c1` (configuration not stated), for which the TGI in assay [1] was more than 625 µM; in assay [3], 403 µM; in [4] it was more than 625 µM; in assay [6], more than 625 µM; in [8] it was more than 625 µM.

In the case of `CCC/C(Cl)=N\OC(=O)Nc1ccc(OC(F)(F)F)cc1`, the TGI in assay [1] is 39.8 µM; in assay [2] it was 32.8 µM; in [9], 54.8 µM; in assay [3] it was 35.5 µM; in assay [4], 23.3 µM; in [10], 33.4 µM. Moreover, the TGI in assay [5] was found to be 18.5 µM; in [6], 2.39 µM; in [8] it was 21.7 µM.

On to `Cc1cc(S(=O)(=O)Nc2nc3cc(-c4ccc(Cl)cc4)sc3c(=O)n2N)c(S)cc1Cl`, for which the TGI in assay [1], in [2], in [3], in assay [4], in [10] and in assay [5] was more than 100 µM throughout. In addition, the TGI in assay [6] and in assay [8] was more than 100 µM throughout.

Turning to `On1c(-c2ccccc2)nc2ccccc2c1=S`, the TGI in assay [1] is more than 100 µM; in assay [2] it was 74.2 µM; in assay [9], more than 100 µM; in assay [3], more than 100 µM; in assay [4], more than 100 µM; in assay [10], more than 100 µM. In addition, the TGI in [5] and in assay [8] was more than 100 µM throughout.

Regarding `OCc1ccc(C2CC(c3ccco3)=NN2c2ccccc2)o1` (configuration not stated), the TGI in assay [1], in assay [3], in assay [4], in [5], in assay [6] and in [7] was more than 100 µM throughout. In [8], the TGI was more than 100 µM.

As for `S=C(Nc1ccc2c(c1)oc1ccccc12)c1cccnc1`, the TGI is more than 100 µM in assay [1]; more than 100 µM in [2]; 32.9 µM in [3]; more than 100 µM in assay [4]; more than 100 µM in [10]; more than 100 µM in assay [5]. The TGI is 64 µM in assay [6], more than 100 µM in assay [7] and more than 100 µM in [8].

Regarding `COC1C=COC2(C)Oc3c(C)c(O)c4c(O)c(c(C5SCCS5)c(O)c4c3C2=O)NC(=O)C(C)=C/C=C\C(C)C2OC(C)(C)OC(C2C)C(C)C(OC(C)=O)C1C` (configuration not stated), the TGI in [1] is 54.7 µM; in assay [2] it was more than 100 µM; in assay [9], 29.3 µM; in [3], 74.4 µM; in [4], 32.6 µM; in assay [10] it was 59.8 µM. In addition, the values for the TGI in assay [5], in assay [6] and in assay [8] were more than 100 µM, 23 µM and 15.5 µM, respectively.

As for `Cn1c2ccccc2c(=NNc2cccc(C(=O)O)c2)c2ccccc21`, the TGI in [1] was 40.3 µM; in assay [2], 23.6 µM; in assay [3], 47.8 µM; in assay [4] it was 46.3 µM; in assay [10] it was 47.8 µM; in assay [5] it was 39.1 µM. Besides, the results for the TGI in assay [6] and in assay [8] were 21 µM and 28.9 µM, respectively.

Take `COc1cc2c3c(c1OC)C1(C=CC(=O)C=C1)C[C@H]3N(C)CC2`: the TGI in assay [4], in [5], in [6], in assay [7] and in assay [8] was more than 100 µM each time.

As for `CCC(=O)ONC(=O)Cn1ccc([N+](=O)[O-])n1`, the TGI in assay [2], in assay [3], in assay [4], in assay [10], in assay [5] and in [6] was more than 100 µM throughout. Besides, the TGI in assay [7] and in assay [8] was more than 100 µM in each case.

Regarding `Cn1c2ccccc2c(=O)c2cccc(C(=O)NC(CCCN=C(N)N)C(=O)O)c21` (configuration not stated), the TGI in assay [1], in assay [2], in assay [3], in assay [4], in assay [10] and in assay [5] was more than 100 µM each time. This compound also showed a TGI in assay [8] of more than 100 µM.

As to `Cc1ccc(S(=O)(=O)C(C#N)c2nc3ccccc3nc2-n2ccnc2)cc1` (configuration not stated), the TGI in assay [1], in assay [3], in assay [4], in [5], in [6] and in assay [8] was more than 100 µM throughout.

Regarding `Cc1ccc(S(=O)(=O)NC(=O)N[C@@H](Cc2cnc[nH]2)C(=O)O)cc1`, the TGI in [1], in [2], in assay [3], in assay [4], in assay [10] and in [5] was more than 100 µM throughout. In addition, the TGI in [6] and in assay [8] was more than 100 µM throughout.

Regarding `Cc1nc2sc3ccccc3n2c(=O)c1N=Nc1ccc(Cl)cc1`, the TGI in [1], in [2], in assay [3], in assay [10], in assay [5] and in assay [6] was more than 100 µM in each case. Also, the TGI in assay [7] and in [8] was more than 100 µM throughout.

As for `COC(=O)C1CCCN1C(=O)C(Cc1cn(S(=O)(=O)c2ccc(C)cc2)cn1)NC(=O)OC(C)(C)C` (configuration not stated), the TGI in assay [2], in [9], in [3], in assay [4], in [5] and in assay [7] was more than 100 µM throughout. The TGI in [8] was more than 100 µM.

For the compound `CC(C)NC(=O)OCCN=c1c2ccccc2ccc2ccccc12`, the TGI in assay [1] is more than 100 µM; in [2], 72.5 µM; in [3], more than 100 µM; in assay [4] it was 64.4 µM; in assay [10] it was more than 100 µM; in assay [5] it was more than 100 µM. For the same compound, the values for the TGI in [7] and in assay [8] were 80.6 µM and 35.8 µM, respectively.

Take `CCOC(=O)c1ccc(C)c(N=NN(C)C)c1`: the TGI in [1], in assay [9], in [3], in assay [4], in [5] and in assay [6] was more than 100 µM each time. The TGI in assay [7] and in assay [8] was more than 100 µM throughout.

In the case of `COc1ccc(C2COc3cc(O)c(O)cc3C2)cc1` (configuration not stated), the TGI in assay [1] came to 45.6 µM; in assay [9] it was 17.4 µM; in assay [3], 232 µM; in [4], 279 µM; in assay [6], 14.1 µM; in [8], 72.4 µM.

In the case of `CC(C(O)Cc1ccccc1)N(C)N=Nc1ccc([N+](=O)[O-])cc1` (configuration not stated), the TGI in assay [1] is more than 100 µM; in [2] it was 40.5 µM; in assay [3], 37.5 µM; in assay [4], 31.8 µM; in assay [10], 85.5 µM; in [5], 33.1 µM. For the same compound, in assay [8], the TGI was 34.7 µM.

For the compound `CCOc1ccc(/C=C2/C(=O)N=C(NC(C)=O)N2C)cc1`, the TGI in assay [1], in assay [9], in assay [3], in assay [4], in [10] and in assay [5] was more than 100 µM in each case. Further, the TGI in assay [8] was more than 100 µM.

Turning to `CC1=C(CO)C(=O)O[C@@H]([C@@H](CO)[C@H]2CCC3C4C[C@@H](O)[C@@]5(O)CC=CC(=O)[C@]5(C)C4CC[C@@]32C)C1` (some centres not stated), the TGI in assay [1] was more than 100 µM; in [9] it was more than 100 µM; in assay [3] it was more than 100 µM; in assay [4], 57.1 µM; in [10], more than 100 µM; in [5], more than 100 µM. The TGI in assay [6], in assay [7] and in assay [8] was more than 100 µM throughout.

On to `CC1CCCC(CC(=O)O)(CC(=O)O)C1` (configuration not stated), for which the TGI in assay [1], in assay [2], in assay [9], in [4], in assay [5] and in assay [6] was more than 100 µM throughout. For the same compound, the TGI in [7] and in [8] was more than 100 µM in each case.

Regarding `O=c1c(C(c2ccc(Cl)cc2)c2c(O)c3ccccc3n(-c3ccccc3)c2=O)c(O)c2ccccc2n1-c1ccccc1`, the TGI in assay [1], in assay [3], in assay [4], in assay [6], in assay [7] and in assay [8] was more than 100 µM in each case.

On to `COc1ccc(/C=C2\N=C(SC)NC2=O)cc1`, for which the TGI in [1] was more than 100 µM; in assay [2] it was more than 100 µM; in assay [3], more than 100 µM; in assay [4] it was 45.3 µM; in [10], more than 100 µM; in [5], more than 100 µM. Besides, the TGI in assay [6] and in assay [8] was more than 100 µM in each case.

Take `O=C(CN(c1ccccc1)c1ccccc1)n1nnc2ccccc21`: the TGI is more than 100 µM in assay [3]; 55.2 µM in assay [4]; more than 100 µM in [5]; 59.1 µM in assay [6]; more than 100 µM in assay [7]; 69.3 µM in [8].
